What is called MIC is the lowest concentration found to suppress growth. Higher therefore signals a need for much substance.

Six molecules from DBAASP can be followed below.

Values after ≈ are worked out from the molar mass of the structure shown.

Test systems include Escherichia coli IS37#; Escherichia coli IS117#; Shigella dysenteriae; Candida glabrata; Streptococcus agalactiae; Candida albicans; Escherichia coli BW25113.
Assay in all cases: ≥ marks a high value that may be exact or a test limit, other limits are often not marked, values filed in µg/mL are converted to µM
The subject of assay [1] is Staphylococcus aureus IS10#.
Assay [2] has as its system Pseudomonas aeruginosa CMCCB 1010.
In assay [3] the test system is Staphylococcus aureus ATCC 25923.
Assay [4] deals with Klebsiella pneumoniae ATCC 700603.
The subject of assay [5] is Candida parapsilosis ATCC 22019.
The subject of assay [6] is Enterobacter cloacae ATCC 13047.
Assay [7] deals with Pseudomonas aeruginosa ATCC 27853.
The test system of assay [8] is Escherichia coli ATCC 25922.
Assay [9] has as its system Candida albicans ATCC 2002.
For assay [10], the system named is Enterococcus faecalis ATCC 29212.
Assay [11] has as its system Candida albicans ATCC 90028.
Assay [12] relates to Staphylococcus aureus IS37#.
In assay [13] the test system is Pseudomonas aeruginosa ATCC 9027.
The test system of assay [14] is Mycobacterium tuberculosis.
For assay [15], the system named is Mycobacterium tuberculosis H37Rv.
The subject of assay [16] is Kocuria rhizophila DSM 348.
In assay [17] the test system is Bacillus subtilis DSM 347.
Assay [18] has as its system Escherichia coli DH5alpha.
In assay [19] the test system is Franconibacter helveticus DSM 18396.
Assay [20] has as its system Escherichia coli ATCC 11219.
The test system of assay [21] is Salmonella enterica subsp. enterica serovar Typhimurium ATCC 14028.
In assay [22] the test system is Pseudomonas aeruginosa ATCC 13388.
The subject of assay [23] is Staphylococcus aureus ATCC 6538.
The test system of assay [24] is Klebsiella pneumoniae ATCC 10031.
In assay [25] the test system is Bacillus cereus NCDC 0240.
Assay [26] concerns Staphylococcus aureus ATCC 29213.
The test system of assay [27] is Escherichia coli MTCC 0723.
Assay [28] relates to Staphylococcus aureus NCDC 0111.
The test system of assay [29] is Acinetobacter johnsonii NCDC 0072.
The test system of assay [30] is Listeria monocytogenes ATCC 19111.
Assay [31] has as its system Pseudomonas aeruginosa NCDC 0105.
The test system of assay [32] is Escherichia coli BW25113 ΔwaaG.
Assay [33] relates to Escherichia coli BW25113 ΔsbmA.

Consider `CC[C@H](C)[C@H](NC(=O)[C@H](CC(C)C)NC(=O)[C@@H]1CCCN1C(=O)[C@H](Cc1ccccc1)NC(=O)[C@@H](N)Cc1ccccc1)C(=O)N[C@@H](C)C(=O)NCC(=O)N[C@@H](CC(C)C)C(=O)N[C@@H](C)C(=O)N[C@@H](C)C(=O)N[C@@H](CCCN=C(N)N)C(=O)N[C@@H](Cc1ccccc1)C(=O)N[C@@H](CC(C)C)C(=O)N1CCC[C@H]1C(=O)N[C@@H](CCCCN)C(=O)N[C@H](C(=O)N[C@@H](Cc1ccccc1)C(=O)N[C@H]1CSSC[C@@H](C(=O)O)NC(=O)[C@H](CCCN=C(N)N)NC(=O)[C@H](CCCCN)NC(=O)[C@H]([C@@H](C)O)NC(=O)[C@H]([C@@H](C)CC)NC(=O)[C@H](CO)NC1=O)[C@@H](C)CC` [FFPLIAGLAARFLPKIFCSITKRC], for which the MIC turned out to be 0.921 µM (≈ 2.5 µg/mL) in the assay on Escherichia coli IS37#; 3.69 µM (≈ 9.99 µg/mL) in assay [1]; 1.84 µM (≈ 5 µg/mL) in assay [2]; 1.84 µM (≈ 5 µg/mL) in assay [3]; 0.921 µM (≈ 2.5 µg/mL) in assay [4]; 7.37 µM (≈ 20 µg/mL) in assay [5]. The MIC in [6] was found to be 0.921 µM (≈ 2.5 µg/mL); in assay [7], 3.69 µM (≈ 9.99 µg/mL); with Escherichia coli IS117#, 3.69 µM (≈ 9.99 µg/mL); in assay [8] it was 0.368 µM (≈ 0.999 µg/mL); in [9], 1.84 µM (≈ 5 µg/mL); in assay [10], 1.84 µM (≈ 5 µg/mL). Also, the MIC in assay [11] amounted to 3.69 µM (≈ 9.99 µg/mL); against Shigella dysenteriae, 3.69 µM (≈ 9.99 µg/mL); in assay [12] it was 1.84 µM (≈ 5 µg/mL).

Take `CC[C@H](C)[C@H](NC(=O)[C@H](CC(C)C)NC(=O)[C@H](CO)NC(=O)[C@@H]1CCCN1C(=O)[C@@H](NC(=O)[C@H](C)NC(=O)[C@H](CCCCN)NC(=O)[C@H](CCSC)NC(=O)[C@H](C)NC(=O)[C@H](CC(C)C)NC(=O)[C@H](CCCCN)NC(=O)CNC(=O)[C@H](CC(C)C)NC(=O)[C@H](Cc1ccccc1)NC(=O)CNC(=O)[C@H](Cc1c[nH]c2ccccc12)NC(=O)[C@@H](N)Cc1ccccc1)C(C)C)C(=O)NCC(=O)NCC(=O)N[C@@H](CC(N)=O)C(=O)N[C@@H](CCCCN)C(=O)N[C@@H](CO)C(=O)N[C@@H](CO)C(=O)N[C@@H](CO)C(=O)N[C@@H](CCCCN)C(=O)O` [FWGFLGKLAMKAVPSLIGGNKSSSK]: the MIC in [3] was 10 µM (≈ 26.2 µg/mL); in the assay on Candida glabrata, no less than 50 µM; in assay [13], 15 µM (≈ 39.4 µg/mL); in assay [8], 24 µM (≈ 63 µg/mL); in [14] it was 30.5 µM (≈ 80 µg/mL); in [15], 21.4 µM (≈ 56.2 µg/mL). The results for the MIC against Streptococcus agalactiae and in the assay on Candida albicans were 15 µM (≈ 39.4 µg/mL) and 12.5 µM (≈ 32.8 µg/mL), respectively.

Turning to `CC[C@H](C)[C@H](NC(=O)CN)C(=O)NCC(=O)N[C@@H](CCCCN)C(=O)N[C@@H](Cc1ccccc1)C(=O)N[C@@H](CC(C)C)C(=O)N[C@@H](Cc1cnc[nH]1)C(=O)N[C@@H](CO)C(=O)N[C@@H](C)C(=O)N[C@@H](CCCCN)C(=O)N[C@@H](CCCCN)C(=O)N[C@@H](Cc1ccccc1)C(=O)NCC(=O)N[C@@H](CCCCN)C(=O)N[C@@H](C)C(=O)N[C@@H](Cc1ccccc1)C(=O)N[C@@H](C)C(=O)NCC(=O)N[C@@H](CCC(=O)O)C(=O)N[C@H](C(=O)N[C@@H](CCSC)C(=O)N[C@@H](CC(N)=O)C(=O)N[C@@H](CO)C(=O)O)[C@@H](C)CC` [GIGKFLHSAKKFGKAFAGEIMNS], the minimum inhibitory concentration (MIC) in [16] was no less than 64 µM; in [17], 8 µM (≈ 19.5 µg/mL); in assay [18], no less than 64 µM; in assay [19] it was no less than 64 µM.

Take `CC[C@H](C)[C@H](NC(=O)CN)C(=O)N[C@@H](Cc1cnc[nH]1)C(=O)N[C@@H](C)C(=O)N[C@H](C(=O)N[C@@H](CC(C)C)C(=O)N[C@@H](CCCCN)C(=O)N[C@@H](Cc1ccc(O)cc1)C(=O)NCC(=O)N[C@@H](CCCCN)C(=O)N1CCC[C@H]1C(=O)N[C@@H](CO)C(N)=O)[C@@H](C)CC` [GIHAILKYGKPS]: the minimal inhibitory concentration (MIC) is no less than 50 µM in [20]; greater than 50 µM in assay [21]; no less than 50 µM in [22]; 5 µM (≈ 6.41 µg/mL) in assay [23]; 30 µM (≈ 38.5 µg/mL) in [24].

In the case of `CC[C@H](C)[C@H](NC(=O)[C@H](Cc1c[nH]c2ccccc12)NC(=O)[C@@H]1CCCN1C(=O)[C@H](CC(C)C)NC(=O)CN)C(=O)N[C@@H](CC(C)C)C(=O)N[C@@H](CC(C)C)C(=O)N[C@@H](CCCN=C(N)N)C(=O)N[C@@H](Cc1c[nH]c2ccccc12)C(=O)N[C@@H](CC(C)C)C(=O)N[C@@H](Cc1ccccc1)C(=O)N[C@@H](Cc1ccccc1)C(=O)N[C@@H](CCCN=C(N)N)C(=O)NCC(=O)O` [GLPWILLRWLFFRG], the minimal inhibitory concentration (MIC) in [21] was 100 µM (≈ 177 µg/mL); in [25], no less than 100 µM; in [7], greater than 200 µM; in [26] it was 3 µM (≈ 5.32 µg/mL); in assay [27], no less than 200 µM; in assay [28], 25 µM (≈ 44.4 µg/mL). Further, the MIC in assay [29] was no less than 200 µM; in assay [30], 6 µM (≈ 10.6 µg/mL); in assay [31], no less than 200 µM.

With `CC[C@H](C)[C@H](N)C(=O)N[C@@H](CCCN=C(N)N)C(=O)N1CCC[C@H]1C(=O)N[C@@H](CCCN=C(N)N)C(=O)N1CCC[C@H]1C(=O)N1CCC[C@H]1C(=O)N[C@@H](CCCN=C(N)N)C(=O)N[C@@H](CC(C)C)C(=O)N1CCC[C@H]1C(=O)N[C@@H](CCCN=C(N)N)C(=O)N1CCC[C@H]1C(=O)N[C@@H](CCCN=C(N)N)C(=O)N1CCC[C@H]1C(=O)N[C@@H](CCCN=C(N)N)C(=O)N1CCC[C@H]1C(=O)N[C@@H](CC(C)C)C(=O)N1CCC[C@H]1C(=O)N[C@@H](Cc1ccc(O)cc1)C(=O)N1CCC[C@H]1C(=O)N[C@@H](CCCN=C(N)N)C(=O)N1CCC[C@H]1C(=O)O` [IRPRPPRLPRPRPRPLPYPRP], the MIC is 4 µM (≈ 10.3 µg/mL) in [32], 8 µM (≈ 20.7 µg/mL) in the assay on Escherichia coli BW25113, 8 µM (≈ 20.7 µg/mL) in [8] and no less than 32 µM in [33].
